Data set [1] concerns the target T1, extracellular domain of VEGFR-1 (Homo sapiens, UniProt P17948).
T1 construct: the extracellular domain of VEGFR-1; purchased R&D Systems
Nature of the data set: Chemiluminescent assay: inhibition of biotinylated VEGF165 binding to isolated VEGFR-1. The settings on record: peptide at 500 μM; chemiluminescence read-out. The source says:
A chemiluminescent assay to determine the inhibition of complex formation between VEGF-A (isoform VEGF165) and the extracellular domain of VEGFR-1 (Goncalves et al., [2007]; García-Aranda et al., [2013]) had been previously employed in our group (Zanella et al., [2015]). VEGF-C (from which analogue 1 was derived) is not selective for VEGFR-1 (Su et al., [2007]), but unfortunately the same assay protocol turned out to be ineffective with VEGFR-2, at least in our hands. The assay based on VEGFR-1 was therefore applied here as a very stringent test of the affinity of our peptides for VEGFRs, and to assess the different peptides comparatively. All peptides were able to inhibit complex formation (Table 3), although in the high micromolar range. […] Further studies were focused on analogues 5 and 6, considering also the higher stability of their secondary structure, which affects resistance to proteolytic degradation.
The chemiluminescent screening assay for the detection of VEGFR-1 ligands was accomplished according to the procedure described in the Supporting Information. […]
horseradish peroxidase diluted at 1:1000 in PBS containing 0.1% (v/v) Tween 20 and 0.3% (w/v) BSA were added per well. Af ter 1 h of incubation at r.t., the plate was washed f ive times with 150 μL of buffer A and 100 μL of SuperSignal W est Pico Chemiluminescent Substrate (Pierce, Rockford, IL, USA) were added. The remaining bt-VEGF165 was detected by chemiluminescence, which was quantif ied with a Synergy™ HT Multi -Detection Microplate Reader (BioTek Instruments, Inc.). The percentages of btVEGF165 displacement were calculated by the following formula: percentage of displacement = 100×[1−( S−NS) / (MS−NS)], where S is the signal measured, NS is the nonspecific binding signal and MS is the maximum binding signal observed with btVEGF165 without tested compounds. […]
loading: 0.5 mmol/g) were used.
Each coupling step consisted in:
1) activation of the Fmoc-protected amino acid;
2) addition of the activated amino acid to the resin at the synthesizer to start the coupling; 3) steps of capping, deprotection and washing.
To perform the automated SPPS, two solutions and two solvents were prepared: 25% Ac2O in DMF (v/v), 25% piperidine in DMF (v/v), methanol and DMF. W hile MeOH was used only as washing solvent, DMF was necessary either for washings and as solvent for the reactions of coupling, capping and deprotection. […]

A further data set relates to pronase. Nature of the data set: Resistance to proteolytic degradation, pronase. The settings on record: Tris·HCl 20 mM with 20 mM CaCl2 pH 7.6, 37°C, RP-HPLC C18 read-out. The data set is classed as in vitro ADME. How it is done: (§1) The proteolytic stability of peptides 1, 5, and 6 was assessed against three enzymes: pronase, trypsin and chymotrypsin (Sigma-Aldrich). Each peptide was dissolved in the appropriate buffer [i.e., (2-amino-2-hydroxymethyl-propane-1,3-diol (Tris)·HCl 20 mM, containing 20 mM CaCl2 pH 7.6 for pronase; Tris·HCl 50 mM, pH 7.8 for trypsin and chymotrypsin). Then, it was incubated with and without the enzyme solution (1.25 μg of enzyme in […] buffer) at 37°C for 12 h. The mixture was analyzed by RP-HPLC (column: Phenomenex Jupiter 5 μ C18 300 Å) every ten minutes for the first hour, then every half hour. Gradients: 5–25%B in 10 min for peptide 1; 15–35%B in 10 min for peptide 5; 15–25%B in 10 min for peptide 6. Eluants: A, H2O:CH3CN 9/1 + 0.05% trifluoroacetic acid (TFA); B: CH3CN:H2O 9/1 + 0.05% TFA.

A further data set concerns trypsin. Nature of the data set: Resistance to proteolytic degradation, trypsin. It counts as in vitro ADME. The settings on record: Tris·HCl 50 mM pH 7.8, 37°C, RP-HPLC C18 read-out. How it is done:
as §1

Another data set deals with chymotrypsin. The data set can be described thus: Resistance to proteolytic degradation, chymotrypsin. The data set is classed as in vitro ADME. The settings on record: Tris·HCl 50 mM pH 7.8, 37°C, RP-HPLC C18 read-out. How it is done: as §1
Data set [2] addresses T1, extracellular domain of VEGFR-1. The settings on record: chemiluminescent VEGFR-1 ligand screening assay; ref Zanella et al., 2015; read-out: IC50 of unlabeled VEGF165 (reference compound); cited from earlier work. The source says:
The chemiluminescent screening assay for the detection of VEGFR-1 ligands was accomplished according to the procedure described in the Supporting Information.

Data on five compounds can be found in paper PMC6449863, “Rational Design of Antiangiogenic Helical Oligopeptides Targeting the Vascular Endothelial Growth Factor Receptors” (Frontiers in Chemistry, 2019).

Usually inhibition stands for how much of the control response was suppressed. The term IC50 denotes the concentration that gives 50% inhibition.

Square brackets hold non-standard residues; d marks the D form. Peptide text beside a SMILES is read from it. Aib = CC(C)(N)C(=O)O Bounds are passed on as bounds.

T1 sequence (P17948 27-758 limits assumed): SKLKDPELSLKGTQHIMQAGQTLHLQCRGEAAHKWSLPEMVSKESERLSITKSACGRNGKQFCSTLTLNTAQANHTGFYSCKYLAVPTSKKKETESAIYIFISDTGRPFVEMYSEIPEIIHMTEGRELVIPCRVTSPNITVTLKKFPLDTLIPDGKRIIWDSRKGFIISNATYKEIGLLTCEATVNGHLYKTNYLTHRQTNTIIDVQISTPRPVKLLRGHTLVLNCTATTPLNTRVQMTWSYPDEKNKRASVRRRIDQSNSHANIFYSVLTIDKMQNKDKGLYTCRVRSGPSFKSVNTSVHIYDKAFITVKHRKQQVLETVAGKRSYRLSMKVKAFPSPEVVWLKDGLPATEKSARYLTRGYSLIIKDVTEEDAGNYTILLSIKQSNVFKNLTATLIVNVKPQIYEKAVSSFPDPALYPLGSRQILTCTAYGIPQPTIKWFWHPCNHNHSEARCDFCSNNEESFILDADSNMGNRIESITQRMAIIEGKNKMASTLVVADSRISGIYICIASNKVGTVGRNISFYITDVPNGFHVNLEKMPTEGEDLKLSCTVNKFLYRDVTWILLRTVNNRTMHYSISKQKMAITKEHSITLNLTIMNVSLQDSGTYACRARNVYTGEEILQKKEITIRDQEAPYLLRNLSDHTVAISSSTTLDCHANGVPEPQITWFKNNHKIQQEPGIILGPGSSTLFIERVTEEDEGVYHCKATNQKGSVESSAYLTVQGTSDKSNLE

Turning to `CC[C@H](C)[C@H](NC(=O)C(C)(C)NC(C)=O)C(=O)N[C@@H](CC(=O)O)C(=O)N[C@@H](CC(N)=O)C(=O)NC(C)(C)C(=O)N[C@@H](Cc1c[nH]c2ccccc12)C(=O)N[C@@H](CCCNC(=N)N)C(=O)N[C@@H](CCCCN)C(=O)NC(C)(C)C(=O)N[C@@H](CCC(N)=O)C(N)=O` [Peptide 3, Ac-Aib-Ile-Asp-As n -Aib-Trp-Arg -Lys-Aib-Gln-amide] (Ac-[Aib]IDN[Aib]WRK[Aib]Q-NH2), in data set [1], the inhibition at 500 µM was 86 ± 1%.

For the compound `CC(=O)NC(C)(C)C(=O)N[C@@H](Cc1c[nH]c2ccccc12)C(=O)N[C@@H](CC(=O)O)C(=O)N[C@@H](CC(N)=O)C(=O)NC(C)(C)C(=O)N[C@@H](Cc1c[nH]c2ccccc12)C(=O)N[C@@H](CCCNC(=N)N)C(=O)N[C@@H](CCCCN)C(=O)NC(C)(C)C(=O)N[C@@H](Cc1c[nH]c2ccccc12)C(N)=O` [Peptide 4, Ac-Aib-Trp- Asp-Asn-Aib-Trp- Arg -Lys-Aib-Trp-amide] (Ac-[Aib]WDN[Aib]WRK[Aib]W-NH2), the inhibition at 500 µM in data set [1] turned out to be 40 ± 10%.

For “Ac-IDNEWRKTQ-NH2 [Peptide 1, Ac-Ile-Asp-Asn-Glu-Trp-Arg -Lys-T hr -Gln-amide]”, in data set [1], the inhibition at 500 µM was determined as 27 ± 1%. Moreover, the “time within which peptide was degraded by pronase” value in the data set on pronase is given as not above 15 min. Also, the “time within which peptide was degraded by trypsin” value with trypsin is given as not above 15 min. Further, the “time within which peptide was degraded by chymotrypsin” value in the data set with chymotrypsin is on record as not above 15 min.

Ac-WDNEWRKTW-NH2 [Peptide 2]: the inhibition at 500 µM in data set [1] stood at 29 ± 7%.

Turning to “VEGF165: VEGF-A isoform VEGF165, unlabeled, employed as reference compound in the VEGFR-1 assay”, the IC50 in data set [2] was 0.146 nM.
